Measurements as given in the supplement of paper PMC10307832.

Experiments:
Test in all cases: relative viability (nuclei count vs DMSO), 5 days (fraction); higher = more cells survive
[1] = compound: C1=CC=C(C(=C1)C2=CC=C(C=C2)C3=CSC4=C3C(=C(C(=O)N4)C#N)O)O + NC(=O)Nc1cc(-c2cccc(F)c2)sc1C(=O)N[C@H]1CCCNC1 [AZD7762] (partner 0.2 µM)
In short: (§1)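 For relative viability, nuclei counts in treated wells were divided by those in vehicle wells. Lung cancer cell lines had been pin-tool dosed in 1536-well plates the day after seeding and cultured for 5 days, then fixed and stained in one step (final 0.05% Triton X-100, 1% formaldehyde, 1 ug/ml Hoechst) and imaged at 4×. Doses were one drug alone or a fixed anchor-drug dose plus five library-drug doses (not always all listed) in √10 steps, and values are duplicate-plate medians.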

TGX 221 + Tozasertib = compound: CC1=CN2C(=O)C=C(N=C2C(=C1)C(C)NC3=CC=CC=C3)N4CCOCC4 [TGX 221] + Cc1cc(Nc2cc(N3CCN(C)CC3)nc(Sc3ccc(NC(=O)C4CC4)cc3)n2)n[nH]1 [Tozasertib] (partner 0.1 µM)
In short: as §1

TGX 221 + Linsitinib = compound: CC1=CN2C(=O)C=C(N=C2C(=C1)C(C)NC3=CC=CC=C3)N4CCOCC4 [TGX 221] + C[C@]1(O)C[C@@H](c2nc(-c3ccc4ccc(-c5ccccc5)nc4c3)c3c(N)nccn32)C1 [Linsitinib] (partner 1 µM)
In short: as §1

TGX 221 + Palbociclib = compound: CC1=CN2C(=O)C=C(N=C2C(=C1)C(C)NC3=CC=CC=C3)N4CCOCC4 [TGX 221] + CC(=O)c1c(C)c2cnc(Nc3ccc(N4CCNCC4)cn3)nc2n(C2CCCC2)c1=O [Palbociclib] (partner 0.5 µM)
In short: as §1

Cell Line | relative viability ([1]; first compound 0.08 µM) | relative viability ([1]; first compound 0.253 µM) | relative viability ([1]; first compound 0.8 µM) | relative viability ([1]; first compound 2.53 µM) | relative viability ([1]; first compound 8 µM) | relative viability (TGX 221 + Tozasertib; first compound 0.08 µM) | relative viability (TGX 221 + Tozasertib; first compound 0.253 µM) | relative viability (TGX 221 + Tozasertib; first compound 0.8 µM) | relative viability (TGX 221 + Tozasertib; first compound 2.53 µM) | relative viability (TGX 221 + Tozasertib; first compound 8 µM) | relative viability (TGX 221 + Linsitinib; first compound 0.08 µM) | relative viability (TGX 221 + Linsitinib; first compound 0.253 µM) | relative viability (TGX 221 + Linsitinib; first compound 0.8 µM) | relative viability (TGX 221 + Linsitinib; first compound 2.53 µM) | relative viability (TGX 221 + Linsitinib; first compound 8 µM) | relative viability (TGX 221 + Palbociclib; first compound 0.08 µM) | relative viability (TGX 221 + Palbociclib; first compound 0.253 µM) | relative viability (TGX 221 + Palbociclib; first compound 0.8 µM) | relative viability (TGX 221 + Palbociclib; first compound 2.53 µM) | relative viability (TGX 221 + Palbociclib; first compound 8 µM)
NCI-H441 | 1.02 | 1.17 | 1.33 | 1.57 | 1.02 | 0.605 | 0.569 | 0.737 | 0.611 | 0.695 | 0.623 | 0.644 | 0.485 | 0.571 | 0.548 | 0.239 | 0.203 | 0.217 | 0.185 | 0.21
PC-3 [JPC-3] | 0.597 | 0.935 | 0.645 | 0.745 | 0.618 | 0.822 | 0.913 | 0.838 | 0.856 | 0.833 | 0.963 | 0.973 | 0.997 | 0.922 | 0.918 | 0.522 | 0.516 | 0.541 | 0.499 | 0.566
201T | 0.634 | 0.616 | 0.652 | 0.704 | 0.717 | 0.915 | 0.933 | 0.955 | 0.833 | 0.808 |  | 0.957 | 0.995 | 0.909 | 0.824 | 0.356 | 0.348 | 0.331 | 0.337 | 0.32
LK-2 | 0.309 | 0.522 | 0.277 | 0.517 | 0.274 | 0.203 | 0.202 | 0.182 | 0.187 | 0.161 | 0.523 | 0.548 | 0.627 | 0.625 | 0.625 | 0.647 | 0.612 | 0.621 | 0.673 | 0.833
NCI-H727 | 0.569 | 0.541 | 0.603 | 0.543 | 0.434 | 0.543 | 0.64 | 0.65 | 0.571 | 0.542 | 0.406 | 0.29 | 0.264 | 0.269 | 0.403 | 0.643 | 0.518 | 0.667 | 0.679 | 0.602
